We go through 26 compounds from ChEMBL document CHEMBL3091346, “Structure-activity relationship studies of thalidomide analogs with a taxol-like mode of action” (Bioorg Med Chem Lett, 2013).

Activity calls are given as the source filed them. The rule behind the calls is not given here.

In experiment [1] the test system is MDA-MB-231. In words: Antiproliferative activity against human MDA-MB-231 cells assessed as growth inhibition by MTS assay. It counts as functional, cell-based. (Tetrazolium dyes change colour on reduction, which living cells bring about.)
In experiment [2] the test system is PC-3. Nature of the experiment: Antiproliferative activity against human PC3 cells assessed as growth inhibition by MTS assay. It counts as functional, cell-based.
In experiment [3] the test system is DU-145. Nature of the experiment: Antiproliferative activity against human DU145 cells assessed as growth inhibition by MTS assay. Format: functional, cell-based.
The target of experiment [4] is T1, Tubulin (Sus scrofa) (UniProt P02554+P02550). Nature of the experiment: Induction of purified porcine brain tubulin polymerization assessed as microtubule-stabilization at 50 uM by spectrophotometric analysis.
Experiment [5] deals with PC-3. Nature of the experiment: Antiproliferative activity against human PC3 cells assessed as growth inhibition at 30 uM by MTS assay. Format: functional. Particulars: read-out: GI.
In experiment [6] the target is T1, Tubulin (Sus scrofa). In words: Induction of purified porcine brain tubulin polymerization at 50 uM by spectrophotometric analysis.

T1 sequence (P02550 whole entry, looked up): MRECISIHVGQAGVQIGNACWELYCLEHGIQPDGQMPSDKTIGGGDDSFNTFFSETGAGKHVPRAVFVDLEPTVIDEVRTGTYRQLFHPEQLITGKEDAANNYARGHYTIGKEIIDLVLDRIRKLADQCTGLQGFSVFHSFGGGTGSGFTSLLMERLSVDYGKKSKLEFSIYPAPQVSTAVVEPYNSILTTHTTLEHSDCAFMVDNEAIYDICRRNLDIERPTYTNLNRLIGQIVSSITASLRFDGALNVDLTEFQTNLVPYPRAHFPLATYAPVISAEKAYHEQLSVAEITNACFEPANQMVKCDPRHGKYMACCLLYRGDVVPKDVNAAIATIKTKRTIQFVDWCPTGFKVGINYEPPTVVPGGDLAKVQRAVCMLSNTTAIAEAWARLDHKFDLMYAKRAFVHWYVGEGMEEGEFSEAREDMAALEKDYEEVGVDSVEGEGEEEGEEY
T1 sequence (P02554 whole entry, looked up): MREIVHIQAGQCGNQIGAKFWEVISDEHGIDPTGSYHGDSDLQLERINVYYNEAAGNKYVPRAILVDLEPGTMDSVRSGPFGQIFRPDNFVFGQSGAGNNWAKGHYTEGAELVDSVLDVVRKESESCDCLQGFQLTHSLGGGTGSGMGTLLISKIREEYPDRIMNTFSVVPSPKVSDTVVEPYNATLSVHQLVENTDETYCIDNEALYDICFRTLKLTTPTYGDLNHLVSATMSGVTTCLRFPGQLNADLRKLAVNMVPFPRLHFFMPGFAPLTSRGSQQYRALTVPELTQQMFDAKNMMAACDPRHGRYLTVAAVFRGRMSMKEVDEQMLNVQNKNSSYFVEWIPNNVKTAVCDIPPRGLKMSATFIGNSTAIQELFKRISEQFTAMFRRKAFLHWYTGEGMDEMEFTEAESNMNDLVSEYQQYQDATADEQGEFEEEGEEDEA

For the compound `CC(C)c1cccc(C(C)C)c1N1C(=O)c2ccc(C(=O)O)cc2C1=O`, the IC50 (in general, the midpoint of a concentration-inhibition curve) in experiment [1] was 5.56 µM; in experiment [2], 6.4 µM; in experiment [3], 9.16 µM.

With `COC(=O)c1ccc2c(c1)C(=O)N(c1c(C(C)C)cccc1C(C)C)C2=O`, the 50% inhibitory concentration (IC50) in experiment [1] turned out to be 6.87 µM; in experiment [2] it was 21.8 µM; in experiment [3], 24.6 µM.

For the compound `CCc1cccc(CC)c1N1C(=O)c2ccc(O)cc2C1=O`, the figures for the concentration for half-maximal inhibition (IC50) in experiment [1], in experiment [2] and in experiment [3] were 29.2 µM, over 50 µM and 45.9 µM, respectively. In addition, the outcome in experiment [4] was Active.

Take `Cc1cccc(C)c1N1C(=O)c2ccccc2C1=O`: the inhibition of growth at 30 µM in experiment [5] is under 10%.

Consider `O=C1c2ccccc2C(=O)N1c1c(Cl)cccc1Cl`, for which the inhibition of growth at 30 µM in experiment [5] is under 10%.

For the compound `O=C1c2ccccc2C(=O)N1c1c(Br)cccc1Br`, in experiment [5], the inhibition of growth at 30 µM stood at 21.9%.

Take `CC(C)c1cccc(C(C)C)c1N1C(=O)c2ccc(N)cc2C1=O`: the values for the half-inhibitory concentration (IC50) in experiment [1], in experiment [2] and in experiment [3] were 7.24 µM, 2.07 µM and 3.94 µM, respectively. The result in experiment [6] was Active.

`CC(C)c1cccc(C(C)C)c1N1C(=O)c2ccc(O)cc2C1=O`: the IC50 worked out at 5.35 µM in experiment [1], 8.3 µM in experiment [2] and 5.74 µM in experiment [3]. The outcome in experiment [6] and in experiment [4] was Active. Also, the inhibition of growth at 30 µM in experiment [5] was over 90%.

On to `O=C1c2ccccc2C(=O)N1c1c(F)cccc1F`, for which the inhibition of growth at 30 µM in experiment [5] is under 10%.

In the case of `CC(C)c1cccc(C(C)C)c1N1C(=O)c2cccc([N+](=O)[O-])c2C1=O`, the figures for the 50% inhibitory concentration (IC50) in experiment [1], in experiment [2] and in experiment [3] were 37.7 µM, 38.3 µM and over 50 µM, respectively.

For `Cc1cccc(C)c1N1C(=O)c2ccc(O)cc2C1=O`, the IC50 in experiment [1], in experiment [2] and in experiment [3] was over 50 µM in each case. For the same compound, the outcome in experiment [4] was inactive.

For `O=C1c2ccccc2C(=O)N1c1cc(Cl)ccc1Cl`, the inhibition of growth at 30 µM in experiment [5] is under 10%.

As to `O=C1c2ccccc2C(=O)N1c1ccc2ccccc2c1`, the inhibition of growth at 30 µM in experiment [5] came to 16%.

Take `O=C1c2ccccc2C(=O)N1c1ccc([N+](=O)[O-])c(C(F)(F)F)c1`: in experiment [5], the inhibition of growth at 30 µM is under 10%.

In the case of `CC(C)c1cccc(C(C)C)c1N1C(=O)c2cccc(O)c2C1=O`, the IC50 in experiment [1] turned out to be 15 µM; in experiment [2], 45.2 µM; in experiment [3], 45.6 µM. Moreover, in experiment [6], the outcome was Active.

Consider `Cc1ccc2c(c1)C(=O)N(c1c(C(C)C)cccc1C(C)C)C2=O`, for which the half-maximal inhibitory concentration (IC50) in experiment [1] came to 4.85 µM; in experiment [2], 8.02 µM; in experiment [3] it was 6.62 µM.

Turning to `CC(C)c1cccc(C(C)C)c1N1C(=O)c2cccc(N)c2C1=O`, the results for the IC50 in experiment [1], in experiment [2] and in experiment [3] were 7.24 µM, 6.26 µM and 8.14 µM, respectively.

Turning to `Cc1ccc(N2C(=O)c3ccccc3C2=O)cc1C`, the inhibition of growth at 30 µM in experiment [5] is under 10%.

With `COc1ccc(N2C(=O)c3ccccc3C2=O)cc1OC`, in experiment [5], the inhibition of growth at 30 µM was determined as 10.2%.

`O=C1c2ccccc2C(=O)N1c1ccc(Cl)c(Cl)c1`: in experiment [5], the inhibition of growth at 30 µM was under 10%.

As for `CC(C)c1cccc(C(C)C)c1N1C(=O)c2ccc([N+](=O)[O-])cc2C1=O`, the 50% inhibitory concentration (IC50) in experiment [1] was over 50 µM; in experiment [3], 15 µM.

As for `O=C1c2ccccc2C(=O)N1c1cccc2ccccc12`, the inhibition of growth at 30 µM in experiment [5] is under 10%.

For `O=C1c2ccccc2C(=O)N1c1ccc(Cl)cc1Cl`, the inhibition of growth at 30 µM in experiment [5] was under 10%.

Regarding `CC(C)c1cccc(C(C)C)c1N1C(=O)c2ccc(Cl)cc2C1=O`, the IC50 in experiment [1] amounted to 10.6 µM; in experiment [2], 5.52 µM; in experiment [3], 14.1 µM.

In the case of `CC(C)c1cccc(C(C)C)c1N1C(=O)c2ccccc2C1=O`, the IC50 was found to be 4.12 µM in experiment [1], 4.01 µM in experiment [2] and 7.12 µM in experiment [3].

Regarding `O=C1c2ccccc2C(=O)N1c1cc(Cl)cc(Cl)c1`, in experiment [5], the inhibition of growth at 30 µM was under 10%.
